Measured values reported in PMC6522510 (Nature Communications, 2019).

Tests used:
Set-up in all cases: species or system AML cell lines (8); Primary HTS, single concentration about 10 uM, Cell Titer Glo viability; log10 luminescence, per cent inhibition relative to cycloheximide control
Details in all cases: 72 h, relative to cycloheximide control, log10 luminescence; inhibitor
U937 = test system: U937
MOLM-13 = test system: MOLM-13
CMK = test system: CMK
CMS = test system: CMS
M07e = test system: M07e
CHRF288-11 = test system: CHRF288-11
ML-2 = test system: ML-2
MV4-11 = test system: MV4-11

Row | Structure (SMILES) | U937 %inh (U937) | MOLM-13 %inh (MOLM-13) | CMK %inh (CMK) | CMS %inh (CMS) | M07e %inh (M07e) | CHRF288-11 %inh (CHRF288-11) | ML-2 %inh (ML-2) | MV4-11 %inh (MV4-11)
1 | O=C1NC(=NCCCc2ccccc2)S/C1=C\c1ccc2ncccc2c1 [SJ000581127-1] | 2.066% | 42.49% | 8.234% | 4.391% | 6.993% | -2.357% | 2.496% | 18.37%
2 | COc1cc[nH]c1/C=C1\C(=O)Nc2ccc([N+](=O)[O-])c(N3CC[C@@H](O)C3)c21 [SJ000581128-1] | 87.66% | 123.9% | 98.31% | 95.24% | 106% | 53.94% | 60.5% | 84.07%
3 | O=C1NC(=NCCc2cccc(F)c2)S/C1=C\c1ccc2ncccc2c1 [SJ000581129-1] | 84.57% | 21.32% | 94.55% | 28.27% | 27.94% | 23.25% | 47.36% | 43.95%
4 | OCCn1c(-c2ccncc2)c(-c2ccc(F)cc2)c2ncccc21 [SJ000581130-1] | 1.305% | 0.6818% | 5.975% | 3.754% | 6.21% | 7.224% | -0.1929% | 4.176%
5 | N#Cc1c(C(=O)c2ccccc2)cnn1-c1ccccc1 [SJ000581131-1] | -0.2486% | 1.329% | -0.4032% | 1.498% | 8.327% | 0.7045% | 0.5024% | 2.305%
6 | Nc1c(C(=O)c2ccc(-c3cccnc3)cc2)cnn1-c1ccc(F)cc1 [SJ000581132-1] | -1.133% | 0.5666% | -0.6442% | 7.229% | 5.04% | 1.549% | -1.014% | 2.713%
7 | CN1C[C@@H]2Cn3c(c(C4=C(c5cn(C)c6ccccc56)C(=O)NC4=O)c4ccccc43)C[C@H]2C1 [SJ000581133-2] | 4.609% | 14.65% | 11.96% | -1.372% | 4.251% | 9.973% | 1.581% | 12.86%
8 | O=C1NC(=NCc2ccccc2Cl)S/C1=C\c1ccc2ncccc2c1 [SJ000581134-1] | 2.507% | 0.6384% | -0.8248% | 2.499% | 4.671% | -1.242% | 1.267% | 3.2%
9 | O=C1NC(=N[C@@H]2C[C@H]2c2ccccc2)S/C1=C\c1ccc2ncccc2c1 [SJ000581135-1] | 9.436% | 1.012% | -0.2461% | -0.3906% | 3.343% | 1.296% | 0.9867% | 2.985%
10 | Cn1cc(C2=C(c3cccc4ccccc34)C(=O)NC2=O)c2ccccc21 [SJ000581136-1] | 2.302% | -0.09214% | 2.941% | 3.922% | 1.122% | 6.432% | -1.062% | 3.742%
11 | Cn1cc(C2=C(c3cccc([N+](=O)[O-])c3)C(=O)NC2=O)c2ccccc21 [SJ000581137-1] | -0.4034% | 11.77% | 90.94% | 50.99% | 11.35% | 36.65% | 13.53% | 20.06%
12 | Cn1c(=O)c(Oc2ccc(F)cc2F)cc2cnc(NCC(C)(C)O)nc21 [SJ000581138-1] | 1.09% | 1.398% | 2.21% | 0.7178% | 5.81% | 7.837% | -0.3186% | 3.026%
13 | CC(=O)N[C@@H](Cc1ccc(OP(=O)(O)O)cc1)C(=O)N[C@H]1CCC(=O)N2CCC[C@@H](C(=O)NCc3ccc(O)cc3)N2C1=O [SJ000581139-1] | -0.05209% | 2.506% | 0.1299% | 2.649% | 2.301% | -2.024% | -0.8925% | 1.337%
14 | COc1ccccc1CN=C1NC(=O)/C(=C/c2ccc3ncccc3c2)S1 [SJ000581141-1] | 8.458% | 11.11% | 34.72% | 6.446% | 13.46% | -2.393% | 2.098% | 3.855%
15 | COc1ccccc1C(=O)c1cnc(NC2CCN(S(C)(=O)=O)CC2)nc1N [SJ000581142-1] | 8.409% | 12.27% | 37.79% | 7.4% | 6.858% | 2.52% | 3.568% | 2.743%
16 | CN[C@H](C#Cc1c(F)ccc2c1/C(=C/c1[nH]ccc1OC)C(=O)N2)CO [SJ000581143-1] | 84.86% | 108.7% | 110.7% | 103.6% | 77.31% | 59.49% | 61.18% | 81.33%
17 | COc1cccc(C2=C(c3c(C)n(C)c4ccccc34)C(=O)NC2=O)c1 [SJ000581144-1] | 1.12% | 3.467% | 1.238% | -0.561% | 8.342% | 0.2394% | -0.7501% | 0.7267%
18 | CC(C)Nc1ncc2cc(Oc3ccc(F)cc3F)c(=O)n(C)c2n1 [SJ000581145-1] | 2.438% | 2.517% | 7.64% | 3.456% | 6.769% | -0.5311% | 0.005285% | 3.959%
19 | COc1cccc(C2=C(c3cn(C)c4ccc(Cl)cc34)C(=O)NC2=O)c1 [SJ000581146-1] | 1.209% | 1.622% | -1.255% | 4.874% | 8.183% | -4.42% | -1.297% | 2.685%
20 | O=C1NC(=NCCc2ccccn2)S/C1=C\c1ccc2ncccc2c1 [SJ000581148-1] | 2.939% | 58.53% | 25.57% | 10.48% | 10.8% | 5.232% | 2.217% | 45.12%
21 | COc1cccc(C2=C(c3cn(C)c4cc(F)ccc34)C(=O)NC2=O)c1 [SJ000581149-1] | 0.6707% | 1.739% | -0.7568% | 6.064% | 3.649% | 1.293% | -0.5942% | 0.4897%
22 | Nc1c(C(=O)c2cccc(C(O)(CO)CO)c2)cnn1-c1ccc(F)cc1 [SJ000581150-1] | -0.03378% | 1.373% | -0.6841% | 0.8259% | 0.2609% | -1.927% | -0.9818% | 2.176%
23 | CCn1c(=O)c(Oc2ccc(F)cc2F)cc2cnc(NC3CCOCC3)nc21 [SJ000581151-1] | 0.6844% | 2.299% | 8.128% | -2.221% | 11.45% | -1.135% | -1.057% | 2.556%
24 | Cc1ccc(C)c(C2=C(c3cn(C)c4ccccc34)C(=O)NC2=O)c1 [SJ000581152-1] | 4.715% | 2.3% | 4.497% | -1.704% | -1.997% | 30.38% | 0.7091% | 2.862%
